Experimental data: patent US5232917A, “Methods, compositions, and compounds for allosteric modulation of the GABA receptor by members of the androstane and pregnane series” (priority 1991, dated 1993)

Assays:
[1] = system: metrazol induced convulsions; assay: Inhibition of metrazol induced convulsions (Table 2); format: in vivo, mice; details: Mus musculus; inhibition of metrazol induced convulsions; read-out: Anti-Metrazol ED50
Description: Experiments were also performed to determine the physiological relevance of these interactions by measuring the ability of the compound of and used in the invention to modulate TBPS-induced convulsions in Swiss-Webster mice. […] The time to onset of myoclonus (presence of forelimb clonic activity) induced by TBPS was determined by observing each mouse for a period of 45 minutes. Significant differences between the time to onset in control mice vs. steroid-treated mice were determined by Student's t-test. […] The number of animals with tonic and/or clonic convulsions was recorded. In the maximal electroshock test, 50 mA of current at 60 Hz was delivered through corneal electrodes for 200 msec to induce tonic seizure. […] The ED50 (the dose at which the half-maximal effect occurs) was determined for each screen.
Adult male CFI mice (20-30g) were used in these studies. […] Percent protection against metrazol-induced seizures was plotted against time after administration of the compound. […] Ten to twelve mice were used per dose of test drug. […] The number of animals with tonic and/or clonic convulsions was recorded. The ability of the steroid to abolish the tonic component was defined as the endpoint. Sedative potential was determined by a rotorod test where the number of mice staying on a rotating (6 rpm) rod for ≥1 min. in each of three trials was determined.

estrogen receptor = target: T1, estrogen receptor (Bos taurus, UniProt P49884); assay: Inhibition of 3H-estradiol binding to bovine uteral estrogen receptors; details: read-out: % of inhibition of 3H-estradiol binding, B, competitor 10^-6 M; 0.25 nM 3H-estradiol
T1 construct: from tissue; host or cells: bovine uterus cytosol
T1 sequence (P49884 1-596): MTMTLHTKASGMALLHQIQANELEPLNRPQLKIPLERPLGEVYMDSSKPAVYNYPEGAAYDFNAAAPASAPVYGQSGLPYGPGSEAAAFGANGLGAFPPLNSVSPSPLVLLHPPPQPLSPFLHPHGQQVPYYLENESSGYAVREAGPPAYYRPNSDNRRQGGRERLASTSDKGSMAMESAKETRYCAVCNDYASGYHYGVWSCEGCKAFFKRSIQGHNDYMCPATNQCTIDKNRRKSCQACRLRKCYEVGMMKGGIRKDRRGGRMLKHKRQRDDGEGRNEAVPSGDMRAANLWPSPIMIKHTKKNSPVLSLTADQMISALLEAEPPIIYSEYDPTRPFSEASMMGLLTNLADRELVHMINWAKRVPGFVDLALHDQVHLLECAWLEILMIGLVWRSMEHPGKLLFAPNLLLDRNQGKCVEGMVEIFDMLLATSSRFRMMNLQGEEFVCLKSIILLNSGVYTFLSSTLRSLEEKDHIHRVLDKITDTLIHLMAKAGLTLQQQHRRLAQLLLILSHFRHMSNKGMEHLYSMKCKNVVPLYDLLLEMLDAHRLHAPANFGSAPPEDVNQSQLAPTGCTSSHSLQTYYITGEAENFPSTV
Description: The hormonal activity of drugs described herein was further studied through testing their potential estrogenic, progestinic, mineralocorticoid and glucocorticoid activities. These activities were analyzed by monitoring the ability of the drugs to inhibit binding of the steroid hormones to their respective hormone receptors.

[2] = system: GABA receptor-chloride ionophore complex (GR complex); assay: Dissociation kinetics of [35S]TBPS in rat cerebral cortical membranes; format: binding; details: alphaxalone 300 nM, 3α-OH-DHP 20 nM
BZ receptor = assay: [3H]flunitrazepam binding to the BZ receptor in rat hippocampal homogenates; details: pentobarbital 1.0 mM; 0.25 nM [3H]FLU; no GABA; FIG. 3
[3] = system: GABA receptor complex (36Cl uptake, cerebral cortical synaptoneurosomes); assay: GABA-stimulated 36Cl uptake in rat cerebral cortical synaptoneurosomes; format: biochemical, rat (male Sprague-Dawley)
[4] = system: maximal electroshock seizure; details: dissolved in DMSO; Belelli et al., 1989; cited from earlier work
[5] = system: metrazol-induced convulsions; details: dissolved in DMSO; Belelli et al., 1989; cited from earlier work
[6] = system: (+)bicuculline-induced seizures; details: dissolved in DMSO; Belelli et al., 1989; cited from earlier work
[7] = system: picrotoxin-induced convulsions; details: dissolved in DMSO; Belelli et al., 1989; cited from earlier work
[8] = system: strychnine-induced convulsions; details: dissolved in DMSO; Belelli et al., 1989; cited from earlier work
[9] = system: sedative potential (rotorod); details: dissolved in DMSO; Belelli et al., 1989; cited from earlier work
[10] = dissolved in DMSO; Belelli et al., 1989; cited from earlier work
[11] = Na pentobarbital 30 μM, 2 nM [35S]TBPS

## C[C@]12CC[C@@H](O)C[C@@H]1CC[C@@H]1[C@@H]2CC[C@]2(C)[C@@H](C(=O)CO)CC[C@@H]12 [Example 5α-THDOC, 3α,21-dihydroxy-5α-pregnan-20-one]
[1]
  ED50: 8 mg/kg
Estrogen receptor
  inhibition at 1 µM: 4%

## CC(=O)[C@H]1CC[C@H]2[C@@H]3CC[C@H]4C[C@H](O)CC[C@]4(C)[C@H]3CC[C@]12C [Example 3α-OH-DHP, 3α-hydroxy-5α-pregnan-20-one]
[2]; Na pentobarbital 30 μM
  Total percentage of specific sites, rapid (R): 35 ± 3%
  Total percentage of specific sites, slow (S): 68 ± 3%
[2]; [11]
  K-1, slowly dissociating component (S): 0.011 ± 0.002 min⁻¹
  T1/2, rapidly dissociating component (R): 6.4 ± 1 min
  T1/2, slowly dissociating component (S): 76 ± 11 min
[2]; pentobarbital 30 μM, FIGS. 2A, 2B
  biphasic dissociation mechanism of [35S]TBPS: absent
BZ receptor
  interaction with pentobarbital in the enhancement of [3H]FLU binding: does not interact
[3]; 3α-OH-DHP 500 nM alone, GABA 25 μM, FIG. 4
  enhancement of GABA-stimulated 36Cl uptake above GABA alone: 60%
[3]; GABA (25 μM) + 3α-OH-DHP (500 nM)
  % enhancement of basal 36Cl uptake: 194 ± 8%
[3]; steroid alone, no GABA
  effect on basal 36Cl uptake: no effect
[1]
  ED50: 5 mg/kg
[4]
  ED50 MES (maximal electroshock): > 300 mg/kg
[5]
  ED50 MTZ (metrazol): 18.8 ± 1.1 mg/kg
[6]
  ED50 BIC (bicuculline): 4.1 ± 1.7 mg/kg
[7]
  ED50 PICRO (picrotoxin): 31.7 ± 1.1 mg/kg
[8]
  ED50 STR (strychnine): > 300 mg/kg
[9]
  ED50 RR (Rotorod): 40 to 100 mg/kg
[10]
  LD50: > 500 mg/kg
